From US20140364359A1, “COMPOSITIONS AND METHODS FOR TREATING CANCER AND INFLAMMATION-RELATED DIESEASES AND CONDITIONS” (priority 2012, published 2014)
Entries after “also recorded” stand apart in the source; their conditions may differ. Read-outs that look alike come from different tables or passages of the source.

Columns and labels:
Primary tumor = test: Percent inhibition of growth relative to controls, primary tumor (Table 4); assay type: in vivo
Metastases = test: Percent inhibition of growth relative to controls, metastases (Table 4); assay type: in vivo
SGC-7901 cells [1] = test: Cell growth assay; assay type: cell-based; conditions: Homo sapiens, read-out: inhibition rate of cell growth
Method: (§1) Human gastric adenocarcinoma cell line SGC-7901 which had been widely used for gastric cancer research was maintained in Hubei Key Laboratory of Tumor Biological Behaviors. Cells were cultured in RPMI-1640 medium supplemented with 10% standard newborn bovine serum in the 5% CO2, saturated humidity, 37° C. incubator (Shel Lab, OR, USA). The culture medium was changed every 2 days.
SGC-7901 cells at exponential growth phase were planted in 24-well culture plates (Corning, N.Y., USA) at a density of 1×10^5/well. After 48 h, cell numbers were determined by direct cell counting of 3 wells, which was designated as cell number of day 0 (D0). Then the cells were divided into 6 groups, treated with normal saline (100 μl), ADM (0.5 μg/ml), ADM (1.0 μg/ml), PADM (0.9 μg/ml), PADM (1.8 μg/ml), and PADM (3.6 μg/ml), respectively, 3 wells per group. Cells in each group were harvested and counted daily from D2 to D7. The cell growth curve was plotted.

SGC-7901 cells [2] = test: Flow cytometric analysis of cell cycle; assay type: cell-based, Human; conditions: SGC-7901, 24 h, ADM 0.25 μg/ml, PADM 0.45 μg/ml
Method: as §1
To study the effect of PADM on cell cycle, flow cytometric analysis was performed. SGC-7901 cells were planted in 6-well culture plates (Corning, N.Y., USA), at a density of 2×10^6/well. After 48 h, the cells were divided into 3 groups and treated for 24 h with normal saline (25 μl), ADM (0.25 μg/ml), and PADM (0.45 μg/ml). The cells in each group were harvested to make single-cell suspension, centrifuged at 4° C.×1000 rpm for 10 min, washed twice with phosphate buffered saline (pH=7.4), fixed and stained with PI kit. Cell cycle analysis was performed by flow cytometry with FC 500 (Beckman Coulter, Calif., USA).

[3] = test system: SGC-7901 peritoneal carcinomatosis; test: GC peritoneal carcinomatosis model, therapeutic study; assay type: in vivo, nude mice; conditions: ADM 2.0 mg/kg; for lung metastasis / median (range) ePCI score: D40; for lung metastasis / relative ePCI reduction: PADM 7.2 mg/kg i.p x8; for median (range) ePCI score: i.p x8 (D8-D36), PADM 7.2 mg/kg; for relative ePCI reduction: compared with control
[4] = for peripheral blood parameters (RBC, lymphocytes) versus control: D16, D24, D32 tail vein blood; for liver and kidney function (ALT, AST, BUN, Cr) versus control: D40 serum, 4 major parameters; for body weight: ADM 2.0 mg/kg, PADM 7.2 mg/kg i.p x8 (FIG. 3)
Method: After 3 days of adaptation, the animals were used for in vivo study, and the protocols were approved by the Animal Care Committee of Wuhan University.
SGC-7901 cells (5×10^6/0.2 ml) were subcutaneously inoculated into the back of nude mice (n=4) as donor tumors, and cells (1×10^7/0.4 ml) were i.p inoculated into the peritoneal cavity of nude mice (n=2). After 50 days, tumor nodules and ascites were obtained and tumor tissue homogenate was re-suspended in ascites at a density of 1×10^7/ml (ascites were used as condition medium). These cell suspensions were injected i.p into 29 nude mice, 0.2 ml containing 5×10^6 cells for each animal, on day 0 (D0). On D8, all of the mice were randomized into 3 groups: control group (n=9), ADM group (n=10) and PADM group (n=10). […] D40 was set as the end point of this study. On D16, D24 and D32, 80 μl of blood was obtained from tail veins, anticoagulated by EDTA, and analyzed by Sysmex KX-21 automated hematology analyzer (Sysmex, Kobe, Japan). On D40, all mice were sacrificed, blood was obtained, coagulated and centrifugated at 4° C.×3000 rpm for 10 min to separate serum for biochemical analysis, including ALT (alanine aminotransferase), AST (aspartate aminotransferase), BUN (blood urea nitrogen), Cr (creatinine), CK (creatine kinase), CK-MB (creatine kinase-MB), LDH (lactate dehydrogenase) by Aeroset Clinical Chemistry Analyzer (Abbott Laboratories, IL, USA).
At autopsy, major organs including the heart, liver, kidneys, spleen and lungs were examined for any toxic changes. Any organs involved by the tumor and the tumor nodules were formalin-fixed, paraffin-embedded, and cut at 5-μm thickness, for histopathological study after hematoxylin and eosin (H&E) staining

[5] = mice, cited from earlier work
Cat B = Cat B (Homo sapiens, UniProt P07858); conditions: cited from earlier work
[6] = 37° C., over 6-7 h; cited from earlier work
Pilot dosage study = conditions: nude mice
[7] = Metastases to Mediastinal lymph nodes

COc1cccc2c1C(=O)c1c(O)c3c(c(O)c1C2=O)C[C@@](O)(C(=O)CO)C[C@@H]3O[C@H]1C[C@H](N)[C@H](O)[C@H](C)O1 [ADM, doxorubicin, reference compound]
Percent inhibition of growth relative to controls (Primary tumor): 42%
Percent inhibition of growth relative to controls (Metastases; Metastases to Diaphragm): 19%
Percent inhibition of growth relative to controls (Metastases; Metastases to Lung): 36%
Percent inhibition of growth relative to controls (Metastases; [7]): 9.1%
Percent inhibition of growth relative to controls (Metastases; Metastases to Mesenteric): 9.1%
Percent inhibition of growth relative to controls (Metastases; Metastases to Retroperitoneal): 65%
inhibition at 0.5 µg/mL (SGC-7901 cells [1]; SGC-7901, D7, 0.5 μg/ml): 80.2%
inhibition at 1 µg/mL (SGC-7901 cells [1]; SGC-7901, D7, 1.0 μg/ml): 96.3%
effect on cell cycle / apoptosis (SGC-7901 cells [2]): a prominent apoptosis peak was observed
lung metastasis [3]: no lung metastasis
median (range) ePCI score [3]: 1.5 (0-6)
relative ePCI reduction [3]: 75%
peripheral blood parameters (RBC, lymphocytes) versus control [4]: significantly lower RBC counts
nude mice died due to severe toxicity ([4]; D36, group n=10): 1
liver and kidney function (ALT, AST, BUN, Cr) versus control [4]: 3 out of the 4 parameters achieved statistical significance
animals with significant myocardium toxicities (histopathology) ([4]; male, BALB/c nude, mouse, in vivo): 7 animals
body weight course versus control ([4]; nude mice PC model, whole study period to D40): significant decrease on D24
body weight ([4]; nude mice PC model): 18.40 ± 2.97 g
LD50 ([5]; given intraperitoneally (i.p)): 13.2 mg/kg
LD50 ([5]; given intravenously): 12.0 mg/kg

COc1cccc2c1C(=O)c1c(O)c3c(c(O)c1C2=O)C[C@@](O)(C(=O)CO)C[C@@H]3O[C@H]1C[C@H](NC(=O)OCc2ccc(NC(=O)[C@H](CCCCN)NC(=O)[C@H](Cc3ccccc3)NC(C)=O)cc2)[C@H](O)[C@H](C)O1 [PADM, Ac-Phe-Lys-PABC-ADM]
Ratio, PADM/Dox (Primary tumor): 1.05
Ratio, PADM/Dox (Metastases; Metastases to Diaphragm): 2.3
Ratio, PADM/Dox (Metastases; Metastases to Lung): 1.9
Ratio, PADM/Dox (Metastases; [7]): 5.7
Ratio, PADM/Dox (Metastases; Metastases to Mesenteric): 3.8
Ratio, PADM/Dox (Metastases; Metastases to Retroperitoneal): 1.2
effect on cell cycle / apoptosis (SGC-7901 cells [2]): did not show significant apoptosis
lung metastasis [3]: no lung metastasis
median (range) ePCI score [3]: 1 (1-4)
relative ePCI reduction [3]: 83.3%
cleavage in Cat B-rich medium (Cat B): rapidly cleaved
peripheral blood parameters (RBC, lymphocytes) versus control [4]: no differences
animals with significant myocardium toxicities (histopathology) ([4]; D40, group n=10): 4 animals
liver and kidney function (ALT, AST, BUN, Cr) versus control [4]: only ALT levels achieved statistical significance
body weight ([4]; nude mice PC model): 23.61 ± 0.80 g
changes in human plasma (stability) [6]: no changes were observed; also recorded: stable in human plasma
histopathological study of major organs (Pilot dosage study; after 4 administrations): No obvious damages
body weight changes (Pilot dosage study; after the fourth administration, total 96.0 mg/kg group A, 144.0 mg/kg group B): persistent body weight decreases
body weight changes (Pilot dosage study; i.p, first 3 injections, groups A and B): no obvious changes in body weight
ceiling dosage set for formal in vivo test (Pilot dosage study; total dosage): below 96.0 mg/kg
